# Measurements: patent US20030219831A1, “Split-hybrid system” (priority 2002, published 2003)
# Columns and labels:
# Format in all cases: cell-based
# [1] = tested on: interactions between RAR and IDII; assay: Two-hybrid reporter assay, VP16-RAR and Gal4N-IDII co-expressed with Gal-TK-Luc; conditions: 1 mM retinoid acid; VP16-RAR + Gal4N-IDII, Gal-TK-Luc; ~120 fold without compound
# Experimental: Two fusion proteins, VP16-RAR and Gal4N-IDII, were co-expressed in a cell containing a Gal-TK-Luc reporter gene construct. Unexpectedly, interactions between RAR and IDII led to a ˜120 fold induction of the reporter gene activity. In contrast, in the presence of 1 mM retinoid acid, interactions of IDII with RAR were blocked and induction of the reporter gene activity was reduced to only ˜7 fold.
# [2] = tested on: interactions between RAR and IDII; assay: Retinoid acid split-hybrid system, NLS-HA-Mad-RAR and Gal4N-IDII with Gal-TK-Luc; parameters: dose or concentration left out as unconfirmed; conditions: Gal-TK-Luc, ~7.5 fold repression without compound
# Description: (§1) Next, two fusion proteins, NLS (nuclear localization signal)-HA (hemagglutinin)-Mad-RAR and Gal4N-IDII, were co-expressed in a cell containing a Gal-TK-Luc reporter gene construct. Unexpectedly, interactions between RAR and IDII led to a ˜7.5 fold repression of the reporter gene activity.
# Gal-TK-Luc = assay: Specificity control, Gal-TK-Luc by itself or with co-transfection controls; conditions: Gal-TK-Luc by itself or with controls Gal4N-Mad, Gal4N-IDII and NLS-HA-Mad-RAR
# Description: as §1
# [3] = tested on: interactions of Gal4N-IDII with SMRT-RAR; assay: Split-hybrid system, SMRT-RAR and Gal4N-IDII with Gal-RSV-Luc; conditions: Gal-RSV-Luc, 8.5-fold repression without compound
# Description: Next, two fusion proteins, SMRT-RAR and Gal4N-IDII, were co-expressed in a cell containing a Gal-RSV-Luc reporter gene construct. Unexpectedly, interactions of Gal4N-IDII with SMRT-RAR conferred 8.5-fold repression. This repression was reversed by retinoid acid treatment.
# RAR and IDI1 = assay: Split-hybrid system with RED1 reporter, RAR and IDII; conditions: in the presence of retinoid acid
compound,measurement,setting,value
CC1=C(/C=C/C(C)=C/C=C/C(C)=C/C(=O)O)C(C)(C)CCC1 [retinoid acid],induction of the reporter gene activity,[1],~7 fold
same,reversal of repression of the reporter gene activity,[2],completely reversed
same,alteration of reporter gene activity of Gal-TK-Luc,Gal-TK-Luc,did not significantly alter
same,reversal of repression of the reporter gene,[3],reversed
same,red fluorescence from RED1 reporter,RAR and IDI1,detected
